According to patent US4927809A, “Oligopeptidyl nitrile derivatives, agents containing them and their use” (Behringwerke Aktiengesellschaft, priority 1986, dated 1990):

Experiments:
[1] = molecular target: T1, alpha human thrombin (Homo sapiens, UniProt P00734); test: Determination of the thrombin time (concentration doubling the thrombin time) in standard human plasma; format: biochemical; conditions: pH 7.6, 37° C., alpha human thrombin 3.0 IU/ml
T1 construct: alpha human thrombin
Procedure: The activity of the substances prepared as in Examples 1, 2 or 3 was ascertained by determination of the thrombin time. This entailed the concentration (in μmol/l) which doubled the thrombin time being ascertained.
50 μl of inhibitor solution of various concentrations, 50 μl of standard human plasma and 100 μl of diethylbarbituric acid/sodium acetate buffer, pH 7.6, were incubated at 37° C. for 45 seconds and 100 μl of alpha human thrombin (3.0 IU/ml) were added. The tests were carried out on a Schnitger & Gross apparatus for determination of the thrombin time.

[2] = molecular target: T1, alpha human thrombin; test: Inhibition constant (Ki) against alpha human thrombin; format: biochemical
[3] = system: mice; conditions: mouse, in vivo, iv
Procedure: The toxicity of H-D-Phe-Pro-Arg-CN × 2HCOOH […] in an animal model. The test substance was administered i.v. to mice. Clinically detectable pathological findings were found at and above a dose of 50 mg/kg. The dose for a therapeutic effect ought to be about 1-4 mg/kg.

Row | Structure (SMILES) | Doubling of the thrombin time at concentration (final conc.) [1] [µmol/L] | Ki [2] [nM] | Dose at and above which clinically detectable pathological findings were found [3] [mg/kg]
1 | CC(C)(C)OC(=O)N[C@H](Cc1ccccc1)C(=O)N1CCC[C@H]1C(=O)NC(C#N)CCCNC(=N)N (stereo partly drawn) [Example 1, N(alpha)-Boc-D-Phenylalanyl-L-prolyl-L-(1-amino-4-guanidino)valeronitrile] | 3.66 | – | –
2 | N#C[C@H](CCCNC(=N)N)NC(=O)[C@@H]1CCCN1C(=O)[C@H](N)Cc1ccccc1.O=CO.O=CO [H-D-Phe-Pro-Arg-CN × 2HCOOH] | – | 600 | ≥ 50
3 | N#CC(CCCNC(=N)N)NC(=O)[C@@H]1CCCN1C(=O)[C@H](N)Cc1ccccc1.O=C(O)C(F)(F)F.O=C(O)C(F)(F)F (stereo partly drawn) [Example 3, H-D-Phenylalanyl-L-prolyl-L-(1-amino-4-guanidino)valeronitrile ditrifluoroacetate] | 1.1 | – | –
4 | N#CC(CCCNC(=N)N)NC(=O)[C@@H]1CCCN1C(=O)[C@@H](Cc1ccccc1)NC(=O)OCC1c2ccccc2-c2ccccc21 (stereo partly drawn) [Example 2, N(alpha)-Fmoc-D-Phenylalanyl-L-prolyl-L-(1-amino-4-guanidino)valeronitrile] | 3.66 | – | –
